Reference: ChEMBL document CHEMBL4219043, “Beyond the Rule of 5: Lessons Learned from AbbVie's Drugs and Compound Collection” (J Med Chem, 2018)
≈ marks a conversion by molar mass, not a printed value.

What was measured:
Hepatitis C virus [1] = assay: Antiviral activity against HCV genotype 1a H77 harboring NS3 R155K mutant infected in human HuH7 replicon cells after 3 days by luciferase reporter gene assay; type: functional, organism-based, Hepacivirus hominis; conditions: genotype 1a H77, Huh-7, 72 h
Hepatitis C virus [2] = assay: Antiviral activity against HCV genotype 1b Con1 harboring NS3 R155K mutant infected in human HuH7 replicon cells after 3 days by luciferase reporter gene assay; type: functional, organism-based, Hepacivirus hominis; conditions: isolate Con1, Huh-7, 72 h
[3] = Plasma clearance in dog at 1 mg/kg, iv by LC-MS/MS analysis; type: ADME, organism-based, Canis lupus familiaris
Hepatitis C virus [4] = assay: Antiviral activity against HCV genotype 1a H77 infected in human HuH7 replicon cells after 3 days in presence of 40% human plasma by luciferase reporter gene assay; type: functional, organism-based, Hepacivirus hominis; conditions: genotype 1a H77, Huh-7, 72 h
Hepatitis C virus [5] = assay: Resistance index, ratio of EC50 for HCV genotype 1b Con1 harboring NS3 R155K mutant infected in human HuH7 replicon cells to EC50 for HCV genotype 1b Con1 harboring wild type NS3 infected in human HuH7 replicon cells; type: functional, Hepacivirus hominis, isolate Con1
[6] = Half life in dog at 1 mg/kg, iv by LC-MS/MS analysis; type: ADME, organism-based, Canis lupus familiaris; conditions: in vivo
Rattus norvegicus = assay: Dose normalized AUC in po dosed rat after 24 hrs by LC-MS/MS analysis; type: ADME, organism-based; conditions: in vivo
Hepatitis C virus [7] = assay: Antiviral activity against HCV genotype 1b Con1 harboring NS3 D168V mutant infected in human HuH7 replicon cells after 3 days by luciferase reporter gene assay; type: functional, organism-based, Hepacivirus hominis; conditions: isolate Con1, Huh-7, 72 h
[8] = Half life in po dosed rat by LC-MS/MS analysis; type: ADME, organism-based; conditions: in vivo
Hepatitis C virus [9] = assay: Resistance index, ratio of EC50 for HCV genotype 1b Con1 harboring NS3 D168V mutant infected in human HuH7 replicon cells to EC50 for HCV genotype 1b Con1 harboring wild type NS3 infected in human HuH7 replicon cells; type: functional, Hepacivirus hominis, isolate Con1
Hepatitis C virus [10] = assay: Resistance index, ratio of EC50 for HCV genotype 1a H77 harboring NS3 R155K mutant infected in human HuH7 replicon cells to EC50 for HCV genotype 1a H77 harboring wild type NS3 infected in human HuH7 replicon cells; type: functional, Hepacivirus hominis
Hepatitis C virus [11] = assay: Antiviral activity against HCV genotype 1b Con1 infected in human HuH7 replicon cells after 3 days in presence of 40% human plasma by luciferase reporter gene assay; type: functional, organism-based, Hepacivirus hominis; conditions: isolate Con1, Huh-7, 72 h
Canis familiaris [12] = assay: Dose normalized AUC in dog at 3 mg/kg, po after 24 hrs by LC-MS/MS analysis; type: ADME, organism-based, Canis lupus familiaris; conditions: in vivo
Hepatitis C virus [13] = assay: Ratio of EC50 in presence of 40% human plasma to EC50 in absence of human plasma for HCV genotype 1a H77 infected in human HuH7 replicon cells; type: functional, Hepacivirus hominis
Hepatitis C virus [14] = assay: Resistance index, ratio of EC50 for HCV genotype 1a H77 harboring NS3 D168V mutant infected in human HuH7 replicon cells to EC50 for HCV genotype 1a H77 harboring wild type NS3 infected in human HuH7 replicon cells; type: functional, Hepacivirus hominis
[15] = Solubility in pH 7.2 buffer; type: physicochemical
Canis familiaris [16] = assay: Fraction of drug absorbed into portal vein in dog at 3 mg/kg, po by LC-MS/MS analysis; type: ADME, organism-based, Canis lupus familiaris; conditions: in vivo
Hepatitis C virus [17] = assay: Antiviral activity against HCV genotype 1a H77 infected in human HuH7 replicon cells after 3 days in absence of human plasma by luciferase reporter gene assay; type: functional, organism-based, Hepacivirus hominis; conditions: genotype 1a H77, Huh-7, 72 h
[18] = Half life in dog at 3 mg/kg, po by LC-MS/MS analysis; type: ADME, organism-based, Canis lupus familiaris; conditions: in vivo
[19] = Plasma clearance in iv dosed rat by LC-MS/MS analysis; type: ADME, organism-based
[20] = Oral bioavailability in rat by LC-MS/MS analysis; type: ADME, organism-based; conditions: in vivo
[21] = Half life in iv dosed rat by LC-MS/MS analysis; type: ADME, organism-based; conditions: in vivo
Hepatitis C virus [22] = assay: Antiviral activity against HCV genotype 1a H77 harboring NS3 D168V mutant infected in human HuH7 replicon cells after 3 days by luciferase reporter gene assay; type: functional, organism-based, Hepacivirus hominis; conditions: genotype 1a H77, Huh-7, 72 h
[23] = Apparent permeability of the compound in human Caco2 cells; type: ADME, cell-based; conditions: Caco-2
Hepatitis C virus [24] = assay: Antiviral activity against HCV genotype 1b Con1 infected in human HuH7 replicon cells after 3 days in absence of human plasma by luciferase reporter gene assay; type: functional, organism-based, Hepacivirus hominis; conditions: isolate Con1, Huh-7, 72 h
Canis familiaris [25] = assay: (§1) Oral bioavailability in dog at 3 mg/kg by LC-MS/MS analysis; type: ADME, organism-based, Canis lupus familiaris; conditions: in vivo
[26] = Apparent permeability of the compound by PAMPA; type: ADME
[27] = as §1; type: ADME, organism-based, Canis lupus familiaris; conditions: in vivo
RS4-11 = assay: Antiproliferative activity against human RS4:11 cells in presence of 10% human serum; type: functional, cell-based
MOLT-4 = assay: Antiproliferative activity against human MOLT4 cells in presence of 10% human serum; type: functional, cell-based

Row | SMILES | EC50 (Hepatitis C virus [1]) [nM] | EC50 (Hepatitis C virus [2]) [nM] | clearance [3] [mL/min/kg] | EC50 (Hepatitis C virus [4]) [nM] | Ratio EC50 (Hepatitis C virus [5]) | half-life [6] [h] | AUC/dose (Rattus norvegicus) [µg·h/mL] | EC50 (Hepatitis C virus [7]) [nM] | Ratio EC50 (Hepatitis C virus [9]) | Ratio EC50 (Hepatitis C virus [10]) | EC50 (Hepatitis C virus [11]) [nM] | AUC/dose (Canis familiaris [12]) [µg·h/mL] | Ratio EC50 (Hepatitis C virus [13]) | Ratio EC50 (Hepatitis C virus [14]) | Solubility [15] [µM] | FaFg (Canis familiaris [16]) | EC50 (Hepatitis C virus [17]) [nM] | half-life [18] [h] | EC50 (Hepatitis C virus [22]) [nM] | EC50 (Hepatitis C virus [24]) [nM] | other results
1 | Cc1cc(C(=O)N[C@H]2CCCCC/C=C\[C@@H]3C[C@@]3(C(=O)NS(=O)(=O)C3CC3)NC(=O)[C@@H]3C[C@@H](Oc4nc5ccccc5nc4C(F)(F)F)CN3C2=O)no1 | 0.4 | 0.7 | 5.67 | 12 | 2 | 1 | 4.75 | 2 | 6 | 4 | 10 | 6.76 | 6 - 35 | 290 | 150 (≈ 116 µg/mL) | 1.5 | 0.5 | 1.5 | 33 | 0.4 | half-life [8]: 1.8 h; clearance [19]: 3.5 mL/min/kg; bioavailability [20]: 99.5%; half-life [21]: 1.2 h; Papp [23]: 5.4 ×10⁻⁶ cm/s; F (Canis familiaris [25]): 200%
2 | Cc1cc(C(=O)N[C@H]2CCCCC/C=C\[C@@H]3C[C@@]3(C(=O)NS(=O)(=O)C3CC3)NC(=O)[C@@H]3C[C@@H](Oc4nc5ccccc5nc4C)CN3C2=O)no1 | 3 | 2 | 7.83 | 30 | 2 | 1.4 | 0.008 | 5 | 2 | 6 | 9 | 0.3 | 6 - 35 | 177 | > 500 | 0.2 | 1.4 | – | 94 | 0.4 | clearance [19]: 78.3 mL/min/kg; bioavailability [20]: 3.9%; half-life [21]: 2.4 h; Papp [26]: 3.5 ×10⁻⁶ cm/s; bioavailability [27]: 13%
3 | Cc1cc(C(=O)N[C@H]2CCCCC/C=C\[C@@H]3C[C@@]3(C(=O)NS(=O)(=O)C3CC3)NC(=O)[C@@H]3C[C@@H](Oc4nc5cc(F)ccc5nc4C)CN3C2=O)no1 | 2 | 1.6 | 1.17 | 11 | 2 | 2 | – | 3 | 4 | 7 | 7 | 18 | 6 - 35 | 146 | > 500 | – | 1.1 | 2 | 41 | 0.8 | Papp [23]: 2.8 ×10⁻⁶ cm/s; bioavailability [27]: 123%
4 | CN(C)CC[C@H](CSc1ccccc1)Nc1ccc(S(=O)(=O)NC(=O)c2ccc(N3CCN(Cc4ccccc4-c4ccc(Cl)cc4)CC3)cc2)cc1[N+](=O)[O-] [ABT 737] | – | – | – | – | – | – | – | – | – | – | – | – | – | – | – | – | – | – | – | – | EC50 (RS4-11): 24 nM; EC50 (MOLT-4): 622 nM
5 | CC1(C)CCC(CN2CCN(c3ccc(C(=O)NS(=O)(=O)c4ccc(NCC5CCOCC5)c([N+](=O)[O-])c4)c(Oc4cnc5[nH]ccc5c4)c3)CC2)=C(c2ccc(Cl)cc2)C1 [VENETOCLAX] | – | – | – | – | – | – | – | – | – | – | – | – | – | – | – | – | – | – | – | – | EC50 (RS4-11): 8 nM; EC50 (MOLT-4): > 5000 nM
